Reference: the supplement of paper PMC9780213

What was measured:
Settings in all cases: treatment time: 24 h
U2OS-mOrange2-Peroxisome = assay: cell count relative to DMSO control (panel B, lysosome/peroxisome/lipid stain) (fraction of control); higher = more cells (less toxicity)
Description: (§1)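 U2OS-derived cells in 384-well plates were treated for 24 h with a 7-point 2-fold dilution series (top dose 20 µM for most compounds; final max DMSO 1%), then fixed, stained in four marker panels and imaged on a Cellomics ArrayScan. Cell count per treatment (three replicate plates merged) is given as a fraction of DMSO control. Panel A used parental U2OS, panel B U2OS-mOrange2-Peroxisome, panel C1 U2OS-LMNB1-TUBA1B-ACTB (DRAQ5 nuclei).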

U2OS-LMNB1-TUBA1B-ACTB = assay: cell count relative to DMSO control (panel C1, DRAQ5/ER stain) (fraction of control); higher = more cells (less toxicity)
Description: as §1

U2OS = assay: cell count relative to DMSO control (panel A, nuclei/RNA/PMG/mitochondria stain) (fraction of control); higher = more cells (less toxicity)
Description: as §1

SMILES: CCOc1ccccc1-n1c(C(C)N2CCN(C(=O)COc3ccc(Cl)cc3)CC2)nc2ccccc2c1=O (stereo not drawn) [erastin]
- cell count (U2OS-mOrange2-Peroxisome; 0.3125 µM): 0.603
- cell count (U2OS-mOrange2-Peroxisome; 0.625 µM): 0.516
- cell count (U2OS-mOrange2-Peroxisome; 1.25 µM): 0.65
- cell count (U2OS-mOrange2-Peroxisome; 2.5 µM): 0.612
- cell count (U2OS-mOrange2-Peroxisome; 5 µM): 0.749
- cell count (U2OS-mOrange2-Peroxisome; 10 µM): 0.77
- cell count (U2OS-mOrange2-Peroxisome; 20 µM): 0.579
- cell count (U2OS-LMNB1-TUBA1B-ACTB; 0.3125 µM): 1.11
- cell count (U2OS-LMNB1-TUBA1B-ACTB; 0.625 µM): 1.14
- cell count (U2OS-LMNB1-TUBA1B-ACTB; 1.25 µM): 1.06
- cell count (U2OS-LMNB1-TUBA1B-ACTB; 2.5 µM): 1
- cell count (U2OS-LMNB1-TUBA1B-ACTB; 5 µM): 1.11
- cell count (U2OS-LMNB1-TUBA1B-ACTB; 10 µM): 1.03
- cell count (U2OS-LMNB1-TUBA1B-ACTB; 20 µM): 0.905
- cell count (U2OS; 0.3125 µM): 1.04
- cell count (U2OS; 0.625 µM): 1.07
- cell count (U2OS; 1.25 µM): 1.03
- cell count (U2OS; 2.5 µM): 1.02
- cell count (U2OS; 5 µM): 1.09
- cell count (U2OS; 10 µM): 0.978
- cell count (U2OS; 20 µM): 0.982

SMILES: O=c1[nH]c(=O)n([C@H]2C[C@H](O)[C@@H](CO)O2)cc1F [floxuridine]
- cell count (U2OS-mOrange2-Peroxisome; 0.3125 µM): 1.52
- cell count (U2OS-mOrange2-Peroxisome; 0.625 µM): 1.54
- cell count (U2OS-mOrange2-Peroxisome; 1.25 µM): 1.34
- cell count (U2OS-mOrange2-Peroxisome; 2.5 µM): 1.14
- cell count (U2OS-mOrange2-Peroxisome; 5 µM): 1.11
- cell count (U2OS-mOrange2-Peroxisome; 10 µM): 0.829
- cell count (U2OS-mOrange2-Peroxisome; 20 µM): 1.31
- cell count (U2OS-LMNB1-TUBA1B-ACTB; 0.3125 µM): 1.06
- cell count (U2OS-LMNB1-TUBA1B-ACTB; 0.625 µM): 1
- cell count (U2OS-LMNB1-TUBA1B-ACTB; 1.25 µM): 0.979
- cell count (U2OS-LMNB1-TUBA1B-ACTB; 2.5 µM): 0.737
- cell count (U2OS-LMNB1-TUBA1B-ACTB; 5 µM): 0.792
- cell count (U2OS-LMNB1-TUBA1B-ACTB; 10 µM): 0.929
- cell count (U2OS-LMNB1-TUBA1B-ACTB; 20 µM): 0.892
- cell count (U2OS; 0.3125 µM): 0.806
- cell count (U2OS; 0.625 µM): 0.815
- cell count (U2OS; 1.25 µM): 0.744
- cell count (U2OS; 2.5 µM): 0.681
- cell count (U2OS; 5 µM): 0.609
- cell count (U2OS; 10 µM): 0.58
- cell count (U2OS; 20 µM): 0.558

SMILES: CC(C)n1c(/C=C/C(O)CC(O)CC(=O)O)c(-c2ccc(F)cc2)c2ccccc21 (stereo not drawn) [fluvastatin]
- cell count (U2OS-mOrange2-Peroxisome; 0.3125 µM): 0.991
- cell count (U2OS-mOrange2-Peroxisome; 0.625 µM): 0.839
- cell count (U2OS-mOrange2-Peroxisome; 1.25 µM): 0.835
- cell count (U2OS-mOrange2-Peroxisome; 2.5 µM): 0.93
- cell count (U2OS-mOrange2-Peroxisome; 5 µM): 0.815
- cell count (U2OS-mOrange2-Peroxisome; 10 µM): 0.872
- cell count (U2OS-mOrange2-Peroxisome; 20 µM): 0.22
- cell count (U2OS-LMNB1-TUBA1B-ACTB; 0.3125 µM): 1.01
- cell count (U2OS-LMNB1-TUBA1B-ACTB; 0.625 µM): 0.939
- cell count (U2OS-LMNB1-TUBA1B-ACTB; 1.25 µM): 0.943
- cell count (U2OS-LMNB1-TUBA1B-ACTB; 2.5 µM): 0.931
- cell count (U2OS-LMNB1-TUBA1B-ACTB; 5 µM): 0.899
- cell count (U2OS-LMNB1-TUBA1B-ACTB; 10 µM): 0.892
- cell count (U2OS-LMNB1-TUBA1B-ACTB; 20 µM): 0.849
- cell count (U2OS; 0.3125 µM): 0.901
- cell count (U2OS; 0.625 µM): 0.848
- cell count (U2OS; 1.25 µM): 0.867
- cell count (U2OS; 2.5 µM): 0.777
- cell count (U2OS; 5 µM): 0.826
- cell count (U2OS; 10 µM): 0.702
- cell count (U2OS; 20 µM): 0.441

SMILES: Nc1ccn([C@@H]2O[C@H](CO)[C@@H](O)C2(F)F)c(=O)n1 [gemcitabine]
- cell count (U2OS-mOrange2-Peroxisome; 0.3125 µM): 0.811
- cell count (U2OS-mOrange2-Peroxisome; 0.625 µM): 0.529
- cell count (U2OS-mOrange2-Peroxisome; 1.25 µM): 0.498
- cell count (U2OS-mOrange2-Peroxisome; 2.5 µM): 0.576
- cell count (U2OS-mOrange2-Peroxisome; 5 µM): 0.543
- cell count (U2OS-mOrange2-Peroxisome; 10 µM): 0.595
- cell count (U2OS-mOrange2-Peroxisome; 20 µM): 0.496
- cell count (U2OS-LMNB1-TUBA1B-ACTB; 0.3125 µM): 1.03
- cell count (U2OS-LMNB1-TUBA1B-ACTB; 0.625 µM): 0.582
- cell count (U2OS-LMNB1-TUBA1B-ACTB; 1.25 µM): 0.411
- cell count (U2OS-LMNB1-TUBA1B-ACTB; 2.5 µM): 0.391
- cell count (U2OS-LMNB1-TUBA1B-ACTB; 5 µM): 0.383
- cell count (U2OS-LMNB1-TUBA1B-ACTB; 10 µM): 0.396
- cell count (U2OS-LMNB1-TUBA1B-ACTB; 20 µM): 0.388
- cell count (U2OS; 0.3125 µM): 1.03
- cell count (U2OS; 0.625 µM): 0.658
- cell count (U2OS; 1.25 µM): 0.435
- cell count (U2OS; 2.5 µM): 0.374
- cell count (U2OS; 5 µM): 0.396
- cell count (U2OS; 10 µM): 0.379
- cell count (U2OS; 20 µM): 0.412

SMILES: Fc1cc(F)c2c(c1)[C@H]1C=CC[C@H]1C(c1cccnc1)N2 (stereo partly drawn) [golgicide-A]
- cell count (U2OS-mOrange2-Peroxisome; 0.3125 µM): 0.814
- cell count (U2OS-mOrange2-Peroxisome; 0.625 µM): 0.73
- cell count (U2OS-mOrange2-Peroxisome; 1.25 µM): 0.804
- cell count (U2OS-mOrange2-Peroxisome; 2.5 µM): 0.719
- cell count (U2OS-mOrange2-Peroxisome; 5 µM): 0.89
- cell count (U2OS-mOrange2-Peroxisome; 10 µM): 0.916
- cell count (U2OS-mOrange2-Peroxisome; 20 µM): 0.833
- cell count (U2OS-LMNB1-TUBA1B-ACTB; 0.3125 µM): 0.952
- cell count (U2OS-LMNB1-TUBA1B-ACTB; 0.625 µM): 1.05
- cell count (U2OS-LMNB1-TUBA1B-ACTB; 1.25 µM): 0.982
- cell count (U2OS-LMNB1-TUBA1B-ACTB; 2.5 µM): 1.1
- cell count (U2OS-LMNB1-TUBA1B-ACTB; 5 µM): 1.14
- cell count (U2OS-LMNB1-TUBA1B-ACTB; 10 µM): 1.05
- cell count (U2OS-LMNB1-TUBA1B-ACTB; 20 µM): 0.778
- cell count (U2OS; 0.3125 µM): 0.981
- cell count (U2OS; 0.625 µM): 1
- cell count (U2OS; 1.25 µM): 0.929
- cell count (U2OS; 2.5 µM): 1.06
- cell count (U2OS; 5 µM): 1.03
- cell count (U2OS; 10 µM): 0.826
- cell count (U2OS; 20 µM): 0.566

SMILES: O=C(CCCN1CCC(O)(c2ccc(Cl)cc2)CC1)c1ccc(F)cc1 [haloperidol]
- cell count (U2OS-mOrange2-Peroxisome; 0.3125 µM): 1.19
- cell count (U2OS-mOrange2-Peroxisome; 0.625 µM): 1.13
- cell count (U2OS-mOrange2-Peroxisome; 1.25 µM): 1.11
- cell count (U2OS-mOrange2-Peroxisome; 2.5 µM): 0.88
- cell count (U2OS-mOrange2-Peroxisome; 5 µM): 1.29
- cell count (U2OS-mOrange2-Peroxisome; 10 µM): 1.16
- cell count (U2OS-mOrange2-Peroxisome; 20 µM): 1.32
- cell count (U2OS-LMNB1-TUBA1B-ACTB; 0.3125 µM): 1.03
- cell count (U2OS-LMNB1-TUBA1B-ACTB; 0.625 µM): 1.05
- cell count (U2OS-LMNB1-TUBA1B-ACTB; 1.25 µM): 1.03
- cell count (U2OS-LMNB1-TUBA1B-ACTB; 2.5 µM): 0.979
- cell count (U2OS-LMNB1-TUBA1B-ACTB; 5 µM): 1.05
- cell count (U2OS-LMNB1-TUBA1B-ACTB; 10 µM): 1.11
- cell count (U2OS-LMNB1-TUBA1B-ACTB; 20 µM): 1.05
- cell count (U2OS; 0.3125 µM): 1.02
- cell count (U2OS; 0.625 µM): 0.985
- cell count (U2OS; 1.25 µM): 0.893
- cell count (U2OS; 2.5 µM): 0.939
- cell count (U2OS; 5 µM): 0.979
- cell count (U2OS; 10 µM): 1
- cell count (U2OS; 20 µM): 0.956

SMILES: CCc1c2c(nc3ccc(OC(=O)N4CCC(N5CCCCC5)CC4)cc13)-c1cc3c(c(=O)n1C2)COC(=O)[C@]3(O)CC [irinotecan]
- cell count (U2OS-mOrange2-Peroxisome; 0.3125 µM): 0.759
- cell count (U2OS-mOrange2-Peroxisome; 0.625 µM): 0.66
- cell count (U2OS-mOrange2-Peroxisome; 1.25 µM): 0.641
- cell count (U2OS-mOrange2-Peroxisome; 2.5 µM): 0.621
- cell count (U2OS-mOrange2-Peroxisome; 5 µM): 0.666
- cell count (U2OS-mOrange2-Peroxisome; 10 µM): 0.771
- cell count (U2OS-mOrange2-Peroxisome; 20 µM): 0.742
- cell count (U2OS-LMNB1-TUBA1B-ACTB; 0.3125 µM): 0.966
- cell count (U2OS-LMNB1-TUBA1B-ACTB; 0.625 µM): 0.998
- cell count (U2OS-LMNB1-TUBA1B-ACTB; 1.25 µM): 0.849
- cell count (U2OS-LMNB1-TUBA1B-ACTB; 2.5 µM): 0.82
- cell count (U2OS-LMNB1-TUBA1B-ACTB; 5 µM): 0.79
- cell count (U2OS-LMNB1-TUBA1B-ACTB; 10 µM): 0.694
- cell count (U2OS-LMNB1-TUBA1B-ACTB; 20 µM): 0.66
- cell count (U2OS; 0.3125 µM): 0.95
- cell count (U2OS; 0.625 µM): 0.795
- cell count (U2OS; 1.25 µM): 0.732
- cell count (U2OS; 2.5 µM): 0.665
- cell count (U2OS; 5 µM): 0.64
- cell count (U2OS; 10 µM): 0.592
- cell count (U2OS; 20 µM): 0.612

SMILES: C/C1=C/C(=O)O[C@@H]2C[C@@H](CC[C@H](C)/C=C\C=C\CC1)O[C@@](O)([C@@H]1CSC(=O)N1)C2 [latrunculin-a]
- cell count (U2OS-mOrange2-Peroxisome; 0.000781 µM): 0.66
- cell count (U2OS-mOrange2-Peroxisome; 0.0015625 µM): 0.625
- cell count (U2OS-mOrange2-Peroxisome; 0.003125 µM): 0.479
- cell count (U2OS-mOrange2-Peroxisome; 0.00625 µM): 0.467
- cell count (U2OS-mOrange2-Peroxisome; 0.0125 µM): 0.312
- cell count (U2OS-mOrange2-Peroxisome; 0.025 µM): 0.155
- cell count (U2OS-mOrange2-Peroxisome; 0.05 µM): 0.0636
- cell count (U2OS-LMNB1-TUBA1B-ACTB; 0.000781 µM): 0.337
- cell count (U2OS-LMNB1-TUBA1B-ACTB; 0.0015625 µM): 0.521
- cell count (U2OS-LMNB1-TUBA1B-ACTB; 0.003125 µM): 0.464
- cell count (U2OS-LMNB1-TUBA1B-ACTB; 0.00625 µM): 0.461
- cell count (U2OS-LMNB1-TUBA1B-ACTB; 0.0125 µM): 0.379
- cell count (U2OS-LMNB1-TUBA1B-ACTB; 0.025 µM): 0.304
- cell count (U2OS-LMNB1-TUBA1B-ACTB; 0.05 µM): 0.196
- cell count (U2OS; 0.000781 µM): 0.372
- cell count (U2OS; 0.0015625 µM): 0.438
- cell count (U2OS; 0.003125 µM): 0.369
- cell count (U2OS; 0.00625 µM): 0.312
- cell count (U2OS; 0.0125 µM): 0.278
- cell count (U2OS; 0.025 µM): 0.194
- cell count (U2OS; 0.05 µM): 0.121
